This is an account of results in US11555010B2, “Diamide antimicrobial agents” (BROWN UNIVERSITY, priority 2019, dated 2023).

Test [1] deals with E. Coli. The test is described as follows: Resazurin antimicrobial MIC assay. Conditions: Escherichia coli, read-out: Apparent MIC Value.
Method: The assay is performed in LB broth. Resazurin sodium salt powder is prepared in distilled water and filter sterilized at 0.001% (w/v) for MIC assays and at 0.01% (w/v) for single concentration assays. Compounds are first screened in MIC assays to assess whether growth inhibition is dependent on inhibitor concentration. The plates are incubated for 30 min under aerobic conditions. Growth controls containing no inhibitory compound, sterility controls without inoculation, and controls containing a known antibiotic, chloramphenicol, are also included. […] Minimum inhibitory concentration (MIC) was determined as the lowest drug concentration that prevented the color change from blue to pink. Inhibition was quantified by observation of color change. […] Inhibition was quantified by fluorescence readings from plate reader SAFIRE, Firmware: V 2.2008/02 Safire. […] Plates are held at 37° C. and fluorescence measurements are taken at 0, 5, 10, 20, 30, and 60 min after addition of dye. Lower fluorescence values correlate to greater degrees of inhibition.
Briefly, second passage cells of B. subtilis 11774 were grown in LB media and standardized to an OD600 nm=1.0. Diamides were analyzed via serial dilution into LB media in microtitre plates. […] MICs were read directly off the plate or via fluorescence (λex 560 nm, λem 590 nm). MICs were recorded as the lowest concentration that inhibited growth.
For test [2], the system named is E. coli. To be noted: cited from earlier work.
The test system of test [3] is B. subtilis. The test is described as follows: Resazurin antimicrobial MIC assay. The test is classed as cell-based. To be noted: Bacillus subtilis, read-out: Apparent MIC Value. The procedure:
Bacillus subtilis ATCC 11775 was plated on agar from a 20% glycerol stock solution stored at −80′° C. Inoculated plates were then incubated at 37° C. under aerobic conditions for 16 hours. Single cultures were transferred to Nutrient Broth (NB) and cultured for 16 hours under the same conditions. […] The assay is performed in LB broth. […] Compounds are tested […] for their capacity to inhibit B. subtilis growth. In order to determine growth inhibition, a resazurin whole-cell assay was used (Kuhn, et al., 2014, Medchemcomm 5:1213-1217). Briefly, second-passage bacteria are incubated with inhibitor in a 96-well plate for four hours, then resazurin dye is added and color/fluorescence change is observed. The resazurin is naturally a blue color, but with reductive species produced during bacterial growth, it is reduced to resorufin, which appears pink. Resorufin is also fluorescent and can be measured by a plate-reader. The disclosures of each and every patent, patent application, and publication cited herein are hereby incorporated herein by reference in their entirety.

Values after ≈ are worked out from the molar mass of the structure shown.

What is called MIC is the smallest concentration in the dilution series that meets the test's criterion for growth inhibition. With `O=C(NC1CCCCC1)C(C1CCNCC1)N(C(=O)c1ccccc1I)C1CCCCC1` (stereo not shown) [Example 6, N-cyclohexyl-N-(2-(cyclohexylamino)-2-oxo-1-(piperidin-4-yl)ethyl)-2-iodobenzamide], the MIC in test [1] amounted to 5 µM (≈ 2.76 µg/mL).

As to `CC1=N[C@@H]2[C@@H](O)[C@H](O)[C@@H](CO)O[C@@H]2S1` [NAG-thiazoline], the “effect on the viability of E. coli” value in test [2] was “no effect”.

With `NCC(C(=O)NC1CCCCC1)N(C(=O)c1ccccc1I)C1CCCCC1` (stereo not shown) [Example 3, N-(3-amino-1-(cyclohexylamino)-1-oxopropan-2-yl)-N-cyclohexyl-2-iodobenzamide], the MIC in test [3] turned out to be 5 µM (≈ 2.49 µg/mL).

As to `CC(N)C(C(=O)NC1CCCCC1)N(C(=O)c1ccccc1I)C1CCCCC1` (stereo not shown) [Example 2], the MIC in test [3] stood at 5 µM (≈ 2.56 µg/mL).
